Here are results for 18 molecules from patent US9555038B2, “Heterocycle-substituted tetracyclic compounds and methods of use thereof for the treatment of viral diseases” (Merck Sharp & Dohme Corp., priority 2013, dated 2017).

Structures are written as SMILES. pIC50: −log10 of the molar value. Like-named read-outs stand apart in the source and are kept apart here.

The test system of one assay is HCV replicon 1AQ30D. In words: Cell-based HCV Replicon Assay B, replicon 1AQ30D. Conditions: for pIC50: read-out: 1A Q30D IC50, replicon 1AQ30D; for IC50: Hepatitis C virus, read-out: 1A Q30D IC50 (nM), replicon 1AQ30D. The procedure, abridged: (§1)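 EC50 defined as the drug concentration giving a CT increase of 1 above projected baseline, from real-time RT-PCR of replicon RNA using genotype-specific primers and probes. Cells were seeded in 5% FBS, dosed after 24 h and incubated 3 days before lysis.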

The next assay relates to HCV replicon 2B. In words: Cell-based HCV Replicon Assay A, replicon 2B. The note with it: for pIC50: read-out: 2B IC50, replicon 2B; for IC50: Hepatitis C virus, read-out: 2B IC50 (nM), replicon 2B. Put shortly:
(§2)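 Three-day exposure of replicon cells (2000/well) to serially diluted compound, 0.5% DMSO, 5% serum. RNA per cell was derived as (Ct − intercept)/slope from replicon total RNA standards, with cyclophilin amplified in the same reaction.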

The subject of the next assay is HCV replicon 1A. The assay is described as follows: Cell-based HCV Replicon Assay A, replicon 1A. Put shortly:
as §2

The next assay concerns HCV replicon 1AY93H. In words: Cell-based HCV Replicon Assay A, replicon 1AY93H. Conditions: for pIC50: read-out: 1A Y93H IC50, replicon 1AY93H; for IC50: Hepatitis C virus, read-out: 1A Y93H IC50 (nM), replicon 1AY93H. The procedure, abridged:
as §2

Another assay deals with HCV replicon 1B. The assay is described as follows: Cell-based HCV Replicon Assay B, replicon 1B. The procedure, abridged: as §1

Regarding `CCCc1ncc(C2Oc3cc(-c4cnc([C@@H]5CCCN5C(=O)[C@@H](NC(=O)OC)C(C)C)[nH]4)cc(F)c3-c3cc4cc(-c5cnc([C@@H]6C[C@H]7C[C@H]7N6C(=O)C(NC(=O)OC)C6C[C@@H](C)O[C@@H](C)C6)[nH]5)ccc4n32)s1` (single isomer, unassigned) [Compound 108], the pIC50 in the assay with HCV replicon 1AQ30D was 10.80; in the assay with HCV replicon 2B it was 11.15; in the assay on HCV replicon 1A (Hepatitis C virus) it was 11.55; with HCV replicon 1AY93H it was 11.48; with HCV replicon 1B (Hepatitis C virus), 11.40.

`CCCc1ncc(C2Oc3cc(-c4cnc([C@@H]5CCCN5C(=O)[C@@H](NC(=O)OC)C(C)C)[nH]4)cc(F)c3-c3cc4cc(-c5cnc([C@@H]6C[C@H]7C[C@H]7N6C(=O)C(NC(=O)OC)C6C[C@@H](C)O[C@@H](C)C6)[nH]5)ccc4n32)s1` (single isomer, unassigned) [Compound 109]: the pIC50 is 9.75 in the assay with HCV replicon 1AQ30D; 10.16 in the assay with HCV replicon 2B; 11.47 in the assay with HCV replicon 1A; 10.52 in the assay with HCV replicon 1AY93H; 11.40 in the assay on HCV replicon 1B.

Consider `COC(=O)NC(C(=O)N1[C@@H]2C[C@@H]2C[C@H]1c1ncc(-c2ccc3c(c2)cc2n3C(c3cnc(C4CC4)s3)Oc3cc(-c4cnc([C@@H]5CC6CC6N5C(=O)[C@@H](NC(=O)OC)C(C)C)[nH]4)cc(F)c3-2)[nH]1)C1CCOC(C)(C)C1` (single isomer, unassigned) [Compound 110], for which the IC50 in the assay on HCV replicon 1AQ30D turned out to be 0.027 nM; with HCV replicon 2B, 0.007 nM; in the assay on HCV replicon 1AY93H, 0.003 nM. For the same molecule, the values for the pIC50 with HCV replicon 1A (Hepatitis C virus) and with HCV replicon 1B (Hepatitis C virus) were 11.48 and 11.40, respectively.

In the case of `COC(=O)NC(C(=O)N1[C@@H]2C[C@@H]2C[C@H]1c1ncc(-c2ccc3c(c2)c(F)c2n3C(c3cnc(C4CC4)s3)Oc3cc(-c4cnc([C@@H]5CCCN5C(=O)[C@@H](NC(=O)OC)C(C)C)[nH]4)cc(F)c3-2)[nH]1)C1CCOC(C)(C)C1` (single isomer, unassigned) [Compound 112], the IC50 with HCV replicon 1AQ30D is 0.036 nM. For the same molecule, the pIC50 in the assay with HCV replicon 2B was 11.40; with HCV replicon 1A (Hepatitis C virus) it was 11.72; in the assay on HCV replicon 1AY93H, 11.36; with HCV replicon 1B (Hepatitis C virus) it was 11.52.

In the case of `COC(=O)N[C@H](C(=O)N1CCC[C@H]1c1ncc(-c2cc(C)c3c(c2)OC(c2cnc(C4CC4)s2)n2c-3cc3cc(-c4cnc([C@@H]5CCCN5C(=O)[C@@H](NC(=O)OC)C(C)C)[nH]4)ccc32)[nH]1)C(C)C` (single isomer, unassigned) [Compound 200], the IC50 in the assay on HCV replicon 1AQ30D amounted to 0.961 nM; in the assay with HCV replicon 2B, 0.014 nM; in the assay with HCV replicon 1AY93H, 0.0796 nM. The pIC50 is 11.31 with HCV replicon 1A (Hepatitis C virus) and 11.52 with HCV replicon 1B (Hepatitis C virus).

With `COC(=O)N[C@H](C(=O)N1CCC[C@H]1c1ncc(-c2cc(C)c3c(c2)OC(c2cnc(C4CC4)s2)n2c-3cc3cc(-c4cnc([C@@H]5C[C@H]6C[C@H]6N5C(=O)[C@@H](NC(=O)OC)C(C)C)[nH]4)ccc32)[nH]1)C(C)C` (single isomer, unassigned) [Compound 203], the IC50 came to 0.654 nM with HCV replicon 1AQ30D, 0.007 nM with HCV replicon 2B and 0.0166 nM in the assay on HCV replicon 1AY93H. The values for the pIC50 with HCV replicon 1A (Hepatitis C virus) and in the assay on HCV replicon 1B (Hepatitis C virus) were 11.35 and 11.52, respectively.

As to `COC(=O)N[C@H](C(=O)N1CCC[C@H]1c1ncc(-c2cc(C)c3c(c2)OC(c2cnc(C4CCC4)s2)n2c-3cc3cc(-c4cnc([C@@H]5CCCN5C(=O)[C@@H](NC(=O)OC)C(C)C)[nH]4)ccc32)[nH]1)C(C)C` (single isomer, unassigned) [Compound 204], the IC50 in the assay on HCV replicon 1AQ30D came to 0.772 nM; with HCV replicon 2B, 0.013 nM; in the assay on HCV replicon 1AY93H, 0.0579 nM. Moreover, the pIC50 with HCV replicon 1A (Hepatitis C virus) was 11.40; with HCV replicon 1B (Hepatitis C virus), 11.70.

Regarding `CCCc1ncc(C2Oc3cc(-c4cnc([C@@H]5CCCN5C(=O)[C@@H](NC(=O)OC)C(C)C)[nH]4)cc(C)c3-c3cc4cc(-c5cnc([C@@H]6C[C@H]7C[C@H]7N6C(=O)[C@@H](NC(=O)OC)C(C)C)[nH]5)ccc4n32)s1` (single isomer, unassigned) [Compound 206], the IC50 with HCV replicon 1AQ30D was 0.83 nM. The pIC50 was 10.52 with HCV replicon 2B, 11.15 with HCV replicon 1A, 10.64 in the assay with HCV replicon 1AY93H and 11.40 in the assay on HCV replicon 1B (Hepatitis C virus).

On to `COC(=O)N[C@H](C(=O)N1CCC[C@H]1c1ncc(-c2cc(C)c3c(c2)OC(c2cnc(C4CC4)s2)n2c-3cc3cc(-c4cnc([C@@H]5C[C@H]6C[C@H]6N5C(=O)[C@@H](NC(=O)OC)C(C)(C)F)[nH]4)ccc32)[nH]1)C(C)C` (single isomer, unassigned) [Compound 208], for which the IC50 with HCV replicon 1AQ30D was 0.268 nM. For the same molecule, the pIC50 in the assay with HCV replicon 2B is 10.96; with HCV replicon 1A (Hepatitis C virus), 11.55; in the assay on HCV replicon 1AY93H, 10.61; in the assay with HCV replicon 1B (Hepatitis C virus) it was 11.52.

Turning to `COC(=O)N[C@H](C(=O)N1CCC[C@H]1c1ncc(-c2cc(C)c3c(c2)OC(c2cnc(C4CCC4)s2)n2c-3cc3cc(-c4cnc([C@@H]5C[C@H]6C[C@H]6N5C(=O)[C@@H](NC(=O)OC)C(C)(C)F)[nH]4)ccc32)[nH]1)C(C)C` (single isomer, unassigned) [Compound 210], the IC50 is 0.216 nM in the assay with HCV replicon 1AQ30D, 0.006 nM in the assay with HCV replicon 2B and 0.0163 nM in the assay on HCV replicon 1AY93H. Further, the pIC50 is 11.31 in the assay on HCV replicon 1A (Hepatitis C virus) and 11.70 with HCV replicon 1B (Hepatitis C virus).

In the case of `COC(=O)NC(C(=O)N1CCC[C@H]1c1ncc(-c2ccc3c(c2)cc2n3C(c3cnc(C4CC4)s3)Oc3cc(-c4cnc([C@@H]5CCCN5C(=O)[C@@H](NC(=O)OC)C(C)C)[nH]4)cc(C)c3-2)[nH]1)C1C[C@@H](C)O[C@@H](C)C1` (single isomer, unassigned) [Compound 212], the figures for the 50% inhibitory concentration (IC50) in the assay on HCV replicon 1AQ30D, in the assay on HCV replicon 2B and with HCV replicon 1AY93H were 0.499 nM, 0.007 nM and 0.0354 nM, respectively. The pIC50 is 11.17 in the assay with HCV replicon 1A (Hepatitis C virus) and 11.10 with HCV replicon 1B (Hepatitis C virus).

Consider `COC(=O)NC(C(=O)N1CCC[C@H]1c1ncc(-c2ccc3c(c2)cc2n3C(c3cnc(C4CC4)s3)Oc3cc(-c4cnc([C@@H]5CCCN5C(=O)[C@@H](NC(=O)OC)C(C)C)[nH]4)cc(C)c3-2)[nH]1)C1C[C@@H](C)O[C@H](C)C1` (single isomer, unassigned) [Compound 213], for which the IC50 in the assay with HCV replicon 1AQ30D turned out to be 0.126 nM; in the assay with HCV replicon 2B, 0.005 nM; with HCV replicon 1AY93H it was 0.0252 nM. Besides, the values for the pIC50 in the assay on HCV replicon 1A (Hepatitis C virus) and in the assay with HCV replicon 1B (Hepatitis C virus) were 11.11 and 11.15, respectively.

For `COC(=O)NC(C(=O)N1CCC[C@H]1c1ncc(-c2ccc3c(c2)cc2n3C(c3cnc(C4CC4)s3)Oc3cc(-c4cnc([C@@H]5CCCN5C(=O)[C@@H](NC(=O)OC)C(C)C)[nH]4)cc(C)c3-2)[nH]1)C1CCOC(C)(C)C1` (single isomer, unassigned) [Compound 214], the results for the IC50 with HCV replicon 1AQ30D, in the assay on HCV replicon 2B and in the assay on HCV replicon 1AY93H were 0.44 nM, 0.004 nM and 0.02 nM, respectively. Besides, the pIC50 with HCV replicon 1A (Hepatitis C virus) is 11.57; with HCV replicon 1B (Hepatitis C virus) it was 11.10.

As to `COC(=O)NC(C(=O)N1[C@@H]2C[C@@H]2C[C@H]1c1ncc(-c2ccc3c(c2)cc2n3C(c3cnc(C4CC4)s3)Oc3cc(-c4cnc([C@@H]5CCCN5C(=O)[C@@H](NC(=O)OC)C(C)C)[nH]4)cc(C)c3-2)[nH]1)C1C[C@@H](C)O[C@@H](C)C1` (single isomer, unassigned) [Compound 217], the IC50 in the assay on HCV replicon 1AQ30D was found to be 0.241 nM. Also, the pIC50 in the assay on HCV replicon 2B is 10.96; in the assay with HCV replicon 1A it was 11.49; with HCV replicon 1AY93H, 11.07; in the assay on HCV replicon 1B it was 11.30.

As to `COC(=O)NC(C(=O)N1CCC[C@H]1c1ncc(-c2ccc3c(c2)cc2n3C(c3cnc(C4CCC4)s3)Oc3cc(-c4cnc([C@@H]5CCCN5C(=O)[C@@H](NC(=O)OC)C(C)C)[nH]4)cc(C)c3-2)[nH]1)C1C[C@@H](C)O[C@@H](C)C1` (single isomer, unassigned) [Compound 219], the IC50 in the assay with HCV replicon 1AQ30D amounted to 0.096 nM. Besides, the pIC50 was 11.52 in the assay with HCV replicon 2B, 11.57 in the assay on HCV replicon 1A, 10.89 in the assay on HCV replicon 1AY93H and 11.40 with HCV replicon 1B (Hepatitis C virus).

As for `COC(=O)NC(C(=O)N1CCC[C@H]1c1ncc(-c2ccc3c(c2)cc2n3C(c3cnc(C4CCC4)s3)Oc3cc(-c4cnc([C@@H]5CCCN5C(=O)[C@@H](NC(=O)OC)C(C)C)[nH]4)cc(C)c3-2)[nH]1)C1CCOC(C)(C)C1` (single isomer, unassigned) [Compound 221], the IC50 was 0.39 nM in the assay on HCV replicon 1AQ30D, 0.006 nM with HCV replicon 2B and 0.06 nM with HCV replicon 1AY93H. Besides, the pIC50 was 11.15 in the assay on HCV replicon 1A (Hepatitis C virus) and 11.10 with HCV replicon 1B (Hepatitis C virus).

Regarding `COC(=O)NC(C(=O)N1[C@@H]2C[C@@H]2C[C@H]1c1ncc(-c2ccc3c(c2)cc2n3C(c3cnc(C4CCC4)s3)Oc3cc(-c4cnc([C@@H]5CCCN5C(=O)[C@@H](NC(=O)OC)C(C)C)[nH]4)cc(C)c3-2)[nH]1)C1C[C@@H](C)O[C@@H](C)C1` (single isomer, unassigned) [Compound 222], the results for the IC50 with HCV replicon 1AQ30D, in the assay with HCV replicon 2B and with HCV replicon 1AY93H were 0.044 nM, 0.007 nM and 0.0059 nM, respectively. In addition, the pIC50 is 11.57 with HCV replicon 1A (Hepatitis C virus) and 11.22 with HCV replicon 1B (Hepatitis C virus).

In the case of `COC(=O)NC(C(=O)N1[C@@H]2C[C@@H]2C[C@H]1c1ncc(-c2ccc3c(c2)cc2n3C(c3cnc(C4CCC4)s3)Oc3cc(-c4cnc([C@@H]5CCCN5C(=O)[C@@H](NC(=O)OC)C(C)C)[nH]4)cc(C)c3-2)[nH]1)C1CCOC(C)(C)C1` (single isomer, unassigned) [Compound 223], the IC50 with HCV replicon 1AQ30D worked out at 2.98 nM; in the assay with HCV replicon 2B, 0.115 nM; in the assay with HCV replicon 1AY93H, 0.3 nM. In addition, the pIC50 in the assay on HCV replicon 1A (Hepatitis C virus) was 11.22; with HCV replicon 1B (Hepatitis C virus), 11.10.
